Test results: patent US20240180881A1, “METHODS FOR DECREASING RESISTANCE TO CHEMOTHERAPY” (National Institute of Immunology, priority 2022, published 2024)

Columns and labels:
HT-29 OHP(R) cells = assay: Xenograft, HT-29 OHP(R); format: in vivo, NSG mice; settings: for tumour volume, chemoresistance: CPT + compound
Procedure: Xenografts assays were carried out in NSG mice using HT-29 OHP(R) cells.
RNA (FIG. 16D) or protein (FIG. 16E) levels of the indicated MDR genes were determined by RT-qPCR or immunoblotting with the indicated antibodies.

[1] = test system: MRP2 in HCT116 WT IC60 CPTR cells; assay: MRP2 activity, CDF accumulation; format: cell-based; settings: combinatorial treatment with CPT
Procedure: The cells were incubated with MRP2 substrate CDFD for 30 minutes at 37° C. The accumulation of florescent product CDF was determined as a measure of MRP2 activity (FIG. 12E). The data is from three independent experiments. Mean±S.D.

His-RAD54 WT = target: T1, His-RAD54 WT (Homo sapiens, UniProt Q92698); assay: Tryptophan fluorescence assay; format: binding; settings: compound, from 10 nM
T1 construct: made in house; host or cells: E. coli BL-21 DE3
T1 sequence (Q92698 1-747): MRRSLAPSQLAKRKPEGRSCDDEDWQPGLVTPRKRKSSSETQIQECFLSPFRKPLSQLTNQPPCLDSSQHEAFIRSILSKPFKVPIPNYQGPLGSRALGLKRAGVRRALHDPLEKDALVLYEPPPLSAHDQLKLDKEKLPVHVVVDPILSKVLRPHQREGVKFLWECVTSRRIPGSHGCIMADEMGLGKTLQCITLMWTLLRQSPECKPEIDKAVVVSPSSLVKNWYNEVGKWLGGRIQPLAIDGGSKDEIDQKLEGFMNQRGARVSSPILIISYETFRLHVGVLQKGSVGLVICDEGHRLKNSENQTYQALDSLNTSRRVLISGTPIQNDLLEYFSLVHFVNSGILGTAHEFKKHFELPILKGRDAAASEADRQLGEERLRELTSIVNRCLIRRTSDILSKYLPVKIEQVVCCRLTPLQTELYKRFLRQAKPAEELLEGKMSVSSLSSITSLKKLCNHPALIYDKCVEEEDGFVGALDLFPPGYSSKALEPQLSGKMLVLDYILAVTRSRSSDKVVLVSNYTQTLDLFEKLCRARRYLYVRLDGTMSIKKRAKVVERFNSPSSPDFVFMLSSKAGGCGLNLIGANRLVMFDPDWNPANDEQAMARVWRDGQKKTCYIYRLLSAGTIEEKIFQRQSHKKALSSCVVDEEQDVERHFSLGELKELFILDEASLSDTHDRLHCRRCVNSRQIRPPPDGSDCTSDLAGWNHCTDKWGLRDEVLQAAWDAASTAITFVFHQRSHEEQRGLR
Procedure: To determine how BLM peptide affects ATP binding and hydrolysis, tryptophan fluorescence assays were carried out using full-length recombinant RAD54 in presence of either BLM_peptide or SCM_peptide (FIG. 2H). Tryptophan fluorescence assays were carried out with RAD54 WT alone or RAD54 WT in presence of the indicated concentrations of either BLM_peptide (upper panel) or SCM_peptide (lower panel). The experiment was repeated three times and one representative experiment has been shown.
RAD54 fluorescence was measured in a fluorometer.
Tryptophan fluorescence measurements were performed on a Fluoromax Spectrofluorimeter (Horiba-Jobin Yvon Fluoromax 4). Recombinant His-RAD54 (500 nM) was excited at 280 nm and the emission intensity monitored at regular intervals from 295 nm to at least 450 nm.

HCT116 IC60 CPTR cells = assay: Soft agar assay; format: cell-based; settings: 100 nM compound along with 120 nM of CPT
Procedure: Concentrations of CPT used: 0.140 nM, 20 nM, 50 nM, 1000 nM. Concentration of 1-OHP: 0.14 μM, 2 μM, 4 μM, 6 μM, 8 μM. Concentrations of CDDP used: 0.140 μM, 2 μM, 5 μM, 10 μM. The percentage of viable cells were determined by MTT assays (FIG. 12A-12C). The data in FIG. 12A and FIG. 12C is from three independent experiments and the data in FIG. 12B is from nine independent experiments. […] The levels of MRP2, MRP3, MRP5, MXR were quantitated from three independent experiments. […] Specifically, HCT116 IC60 CPTR cells were transfected with the HR substrate for 72 hours and the levels of HR was determined (FIG. 6A). The data is from three independent experiments. […] The number of soft agar colonies in each condition were counted. The data is from three independent experiments.
3000 cells mixed with 0.4% agar and seeded on top of the 6-well plates pre-coated with 0.8% agar. The resistant cells were treated with 120 nM of CPT. Post-incubation cells were seeded. […] The colonies were then counted after 15 days after staining with 0.25% Crystal Violet.

[2] = test system: HCT116 CPT(R) cells stably expressing BLM (Delta 181-212) in BLM−/− background; assay: Xenograft, cells expressing BLM (Delta 181-212); format: in vivo, NSG mice; settings: for tumour volume, chemosensitivity to camptothecin: CPT + compound
Procedure: Xenografts assays were carried out in NSG mice using HCT116 CPT(R) cells stably expressing BLM (Delta 181-212) in BLM−/− background. FIGS. 15A-15C show the tumour volumes post-injection of cells.
RNA (FIG. 15D) or protein (FIG. 15E) levels of the indicated MDR genes were determined by RT-qPCR or immunoblotting with the indicated antibodies.

RAD54 ATPase activity = target: T2, RAD54 ATPase activity (Homo sapiens, UniProt Q92698); assay: ATPase assay; format: biochemical; settings: 10 μM compound
T2 construct: made in house; host or cells: E. coli BL-21 DE3
T2 sequence (Q92698 1-747): T1 sequence (Q92698 1-747)
Procedure: The data is from three independent experiments. Mean±S.D.
The presence of the disruptors also led to a decrease in the ATP binding to RAD54.
Assay for RAD54 ATPase activity was carried out as per the previously published protocol (Srivastava et al., 2009). His-RAD54 (120 nM) was incubated with the GST-BLM (1-212) or BLM_peptide or SCM_peptide (180 nM). […] 1 μl of the sample was spotted on the polyethyleneimine-coated TLC plate, resolved in 1M Formic Acid and 0.3M LiCl. The products of ATP hydrolysis were then visualized by Phosphoimager scans taken in Typhoon™ laser-scanner platform (Cytiva) and quantitated using the inbuilt software.

[3] = target: T3, RAD54 chromatin remodeling activity (Homo sapiens, UniProt Q92698); assay: REA assay on chromatinized MRP2 array; format: biochemical; settings: 10 μM compound
T3 construct: GST RAD54 (1-747) (WT), GST BLM (1-1417) (WT), His RAD54 (1-747) (WT); made in house; host or cells: E. coli BL-21 DE3
T3 sequence (Q92698 1-747): T1 sequence (Q92698 1-747)
From the text: (§1) The data was from three independent experiments.
as §1
The data is from three independent experiments.

[4] = without or with compound treatment

`CC(=O)Nc1nnc(S(N)(=O)=O)s1` [C3, Acetazolamide] was tested, and the “tumour volume, chemoresistance” value (HT-29 OHP(R) cells) was “reverses chemoresistance”, the “MRP2 activity, accumulation of CDF” value [1] was “decreased MRP2 activity” and the “tryptophan fluorescence of RAD54” value (His-RAD54 WT) was “quenched the tryptophan florescence of RAD54 even at 10 nM concentration”. For the same molecule, the “number of soft agar colonies (anchorage independent growth)” value (“number of soft agar colonies” below) (HCT116 IC60 CPTR cells) was “decreased anchorage independent cell growth”, the “tumour volume, chemosensitivity to camptothecin” value (from here on “tumour volume, chemosensitivity”) [2] was “abrogates the functions” and the “BLM dependent enhancement of ATPase activity of RAD54 (ATP hydrolysis)” value (“BLM dependent enhancement … (ATP hydrolysis)” below) (RAD54 ATPase activity) was “reduced the extent of ATP hydrolysis”. The “BLM dependent enhancement of RAD54 chromatin remodeling, fraction uncut” value (“BLM dependent enhancement … fraction uncut” below) [3] was “decreased the efficiency of BLM dependent enhancement of RAD54 chromatin remodelling activity”.
With `OCCN(CCO)c1nc(N2CCCCC2)c2nc(N(CCO)CCO)nc(N3CCCCC3)c2n1` [C7, Dipyridamole] the “tumour volume, chemoresistance” value (HT-29 OHP(R) cells) was “reverses chemoresistance”, the “MRP2 activity, accumulation of CDF” value [1] was “decreased MRP2 activity” and the “tryptophan fluorescence of RAD54” value (His-RAD54 WT) was “quenched the tryptophan florescence of RAD54 even at 10 nM concentration”. The “number of soft agar colonies” value (HCT116 IC60 CPTR cells) was “decreased anchorage independent cell growth”, the “tumour volume, chemosensitivity” value [2] was “abrogates the functions” and the “BLM dependent enhancement … (ATP hydrolysis)” value (RAD54 ATPase activity) was “reduced the extent of ATP hydrolysis”. For the same molecule, the “BLM dependent enhancement … fraction uncut” value [3] was “decreased the efficiency of BLM dependent enhancement of RAD54 chromatin remodelling activity”.
For `CN1CCN(C2=Nc3ccccc3Oc3ccc(Cl)cc32)CC1.O=C(O)CCC(=O)O` [C17, Loxapine succinate], the “tumour volume, chemoresistance” value (HT-29 OHP(R) cells) was “reverses chemoresistance”, the “RNA and protein levels of the MDR genes in tumours” value (HT-29 OHP(R) cells; [4]) was “decreased” and the “MRP2 activity, accumulation of CDF” value [1] was “decreased MRP2 activity”. The “tryptophan fluorescence of RAD54” value (His-RAD54 WT) was “quenched the tryptophan florescence of RAD54 even at 10 nM concentration”, the “number of soft agar colonies” value (HCT116 IC60 CPTR cells) was “decreased anchorage independent cell growth” and the “tumour volume, chemosensitivity” value [2] was “abrogates the functions”. The “RNA and protein levels of the MDR genes in tumours” value [2, 4] was “unaffected”, the “BLM dependent enhancement … (ATP hydrolysis)” value (RAD54 ATPase activity) was “reduced the extent of ATP hydrolysis” and the “BLM dependent enhancement … fraction uncut” value [3] was “decreased the efficiency of BLM dependent enhancement of RAD54 chromatin remodelling activity”.
